The values that follow come from ChEMBL document CHEMBL4393685, “Synthesis and evaluation of pyrimidoindole analogs in umbilical cord blood ex vivo expansion” (Eur J Med Chem, 2019).

Usually EC50 stands for the concentration that produces a half-maximal response.

Data set [1] can be described thus: Stimulation of ex vivo expansion of human CD34+CD38- cells assessed as increase in expansion of total cells at 165 nM incubated for 7 days supplemented with 50% fresh medium containing cytokines every other day by flow cytometry relative to control. It is filed as functional. For orientation: In flow cytometry, cells or beads pass a laser one at a time.
A short description of data set [2]: Stimulation of ex vivo expansion of human CD34+ cells assessed as CD34+CD38- level at 0.01 to 1 uM incubated for 7 days supplemented with 50% fresh medium containing cytokines every other day by flow cytometry (reference value: 19.10 +/- 0.35%). It counts as functional.
Data set [3] can be described thus: Stimulation of ex vivo expansion of human CD34+ cells assessed as CD34+CD38- level incubated for 7 days supplemented with 50% fresh medium containing cytokines every other day by flow cytometry. It counts as functional. To be noted: Homo sapiens, 168 h; read-out: EC50.
Data set [4] can be described thus: Stimulation of ex vivo expansion of human CD34+ cells assessed as CD34+ cells at 165 nM incubated for 7 days supplemented with 50% fresh medium containing cytokines every other day by flow cytometry (reference value: 25.9 +/- 0.01%). It is filed as functional.
Data set [5] can be described thus: Stimulation of ex vivo expansion of human CD34+ cells assessed as increase in CD34+CD38- cells at 165 nM incubated for 7 days supplemented with 50% fresh medium containing cytokines every other day by flow cytometry relative to base line. It is filed as functional.
The nature of data set [6]: Stimulation of ex vivo expansion of human CD34+ cells assessed as increase in colony forming cells at 165 nM after 14 days relative to control. It counts as functional.
The species named for data set [7] is Homo sapiens. Briefly: Stimulation of ex vivo expansion of human CD34+ cells assessed as increase in granulocyte/macrophage differentiation at 165 nM measured after 14 days. It counts as functional.
Data set [8] is described as follows: Stimulation of ex vivo expansion of human CD34+ cells assessed as increase in CD34+ cells at 165 nM incubated for 7 days supplemented with 50% fresh medium containing cytokines every other day by flow cytometry relative to base line. It is filed as functional.
Data set [9] can be described thus: Stimulation of ex vivo expansion of human CD34+ cells assessed as CD34+CD38-CD90+[…] cells at 165 nM incubated for 7 days supplemented with 50% fresh medium containing cytokines every other day by flow cytometry (reference value: 2.98 +/- 0.5%). It counts as functional.
The nature of data set [10]: Stimulation of ex vivo expansion of human CD34+ cells assessed as colony forming cells at 165 nM measured after 14 days. It counts as functional.
Data set [11] is described as follows: Stimulation of ex vivo expansion of human CD34+ cells assessed as CD34+/CD38- cells at 165 nM incubated for 7 days supplemented with 50% fresh medium containing cytokines every other day by flow cytometry (reference value: 19.16 +/- 0.32%). It counts as functional.
Data set [12] in a line: Stimulation of ex vivo expansion of human CD34+ cells assessed as increase in CD34+CD38- cells at 165 nM incubated for 7 days supplemented with 50% fresh medium containing cytokines every other day by flow cytometry relative to control. It is filed as functional.
The species entered for data set [13] is Homo sapiens. Briefly: Stimulation of ex vivo expansion of human CD34+ assessed as increase in granulocyte differentiation at 165 nM measured after 14 days. It is filed as functional.
The species named for data set [14] is Homo sapiens. The data set is described as follows: Stimulation of ex vivo expansion of human CD34+ cells assessed as decrease in burst forming units of erythroid at 165 nM measured after 14 days. It counts as functional.
Data set [15] can be described thus: Stimulation of ex vivo expansion of human CD34+ cells assessed as CD34+CD38-CD90+[…]CD49F+ cells at 165 nM incubated for 7 days supplemented with 50% fresh medium containing cytokines every other day by flow cytometry (reference value: 0.16 +/- 0.04%). It counts as functional.
The nature of data set [16]: Cytotoxicity against human CD34+ cells assessed as live cells at 165 nM incubated for 7 days supplemented with 50% fresh medium containing cytokines every other day by flow cytometry (reference value: 77.3 +/- 2%). It is filed as cell-based. To be noted: read-out: Activity.
The nature of data set [17]: Stimulation of ex vivo expansion of human CD34+ cells assessed as increase in expansion of total cells at 165 nM incubated for 7 days supplemented with 50% fresh medium containing cytokines every other day by flow cytometry relative to base line. It counts as functional.
The nature of data set [18]: Stimulation of ex vivo expansion of human CD34+ cells assessed as increase in expansion of total cells at 165 nM incubated for 7 days supplemented with 50% fresh medium containing cytokines every other day by flow cytometry relative to control. It counts as functional.
Data set [19] in a line: Stimulation of ex vivo expansion of human CD34+ cells assessed as CD34+/CD38- level at 0.01 to 1 uM incubated for 7 days supplemented with 50% fresh medium containing cytokines every other day by flow cytometry relative to control. It is filed as functional.
Data set [20] relates to THP-1. The data set is described as follows: Cytotoxicity against human THP1 cells assessed as reduction cell viability up to 1600 nM after 4 days by CCK8 assay. It counts as cell-based. To be noted: thp-1, 96 h.

Calls of active or inactive are those of the source. The calls are words filed in the database; no cut-off is given here.

Consider `COc1cc2c(cc1OC)CN(CCNc1nc(Cc3ccccc3)nc3[nH]c4cc(-c5nnn(C)n5)ccc4c13)CC2`, for which the “fold change (FC)” value is reported as 4.9 in data set [1]; 4 - 5 in [5]; 1.4 in [6]; 5 in data set [8]; 4.4 in data set [12]; 5 in data set [17]. In addition, the “fold change (FC)” value in [18] is on record as 2.4; in data set [19], 3.65. Besides, the Activity in [2] came to 69.69%; in data set [4], 60.33%; in data set [9], 4.05%; in [10], 254 CFU; in [11] it was 58%; in data set [15], 0.21%. Also, in data set [20], the Activity entry is “Non-Toxic”. Moreover, the EC50 in [3] was 30 nM. Besides, the outcome in data set [7], in data set [13] and in [14] was Active. In addition, in [16], the viability at 168 h, 0.165 µM was 80.6%.
